Patent publication US20100094430A1, “Device” (priority 2006, published 2010)

Experiment: Solubility of precursor compounds in methanol
Format: physicochemical
Method: Ca(dbm)2.4H2O (1 g) was weighed into a 250 mL conical flask. Methanol (50 mL) was added, the flask was stoppered and the solution was swirled for […]2 min. The solution was incubated in a water bath at varying temperatures (20°, 30° or 40° C.) for a period of 4 or 17 h. At the end of the incubation period, two 20 mL aliquots of the solution were filtered into separate, pre-weighed round bottomed flasks. […] Experiments for all conditions were carried out in duplicate. The results of the solubility experiments are compiled in Table 2.

solubility in methanol (incubation 20° C., 4 h): 1.78 ± 0.1 g/100 mL | solubility in methanol (incubation 20° C., 17 h): 1.91 ± 0.5 g/100 mL | solubility in methanol (incubation 30° C., 4 h): 1.86 ± 0.1 g/100 mL | solubility in methanol (incubation 30° C., 17 h): 1.88 ± 0.5 g/100 mL | solubility in methanol (incubation 40° C., 4 h): 1.98 ± 0.2 g/100 mL | solubility in methanol (incubation 40° C., 17 h): 1.92 ± 0.4 g/100 mL | solubility in methanol relative to the acac and benzoylacetone calcium complexes (qualitative comparison): higher solubility
Compound: O.O.O.O.O=C(C=C([O-])c1ccccc1)c1ccccc1.O=C(C=C([O-])c1ccccc1)c1ccccc1.[Ca+2] [Ca(dbm)2•4H2O, Ca(dbm)2.4H2O]
